Test [1] concerns the target Alpha-1 adrenergic receptor (Bos taurus). Put plainly: Binding affinity against alpha-1 adrenergic receptor from calf cerebral cortex, using [3H]prazosin as the radioligand.
For test [2] the target is unchanged. The test is described as above. The source holds these as a separate data set.

Five molecules from BindingDB's records for doi:10.1021/jm00366a022 (1984) can be followed below.

As usually defined, the Ki is the dissociation constant of the complex between target and ligand, obtained from inhibition or displacement. Regarding `Oc1cccc(NCC2=NCCN2)c1` [3-[(4,5-Dihydro-1H-imidazol-2-ylmethyl)-amino]-phenol], affinity in test [1] was put at a Ki of 380 nM. This counts as sub-micromolar.

Molecule `CCN(CC1=NCCN1)c1ccc(C)cc1` [(4,5-Dihydro-1H-imidazol-2-ylmethyl)-ethyl-p-tolyl-amine] gave a Ki in test [2] of 300 nM.

Turning to `Cc1ccc(N(C)CC2=NCCN2)cc1` [(4,5-Dihydro-1H-imidazol-2-ylmethyl)-methyl-p-tolyl-amine], the Ki in test [1] was 150 nM.

In test [2], `Cc1ccc(NCC2=NCCN2)cc1` [(4,5-Dihydro-1H-imidazol-2-ylmethyl)-p-tolyl-amine] registered an inhibition constant (Ki) of 230 nM.

Consider `Cc1ccc(N(CC2=NCCN2)C2CCCCC2)cc1` [Cyclohexyl-(4,5-dihydro-1H-imidazol-2-ylmethyl)-p-tolyl-amine], for which the Ki in test [2] turned out to be 424 nM.
